Data reported in EP0590919A1, “Therapeutic agents for parkinson's disease” (KYOWA HAKKO KOGYO CO., LTD., priority 1992, dated 1994).
Read-outs that look alike come from different tables or passages of the source.

Key:
A₁ receptor = molecular target: T1, A₁ receptor (Cavia porcellus, UniProt P47745); test: Adenosine A₁ receptor binding test (³H-CHA binding); design: species or system guinea pig; details: for inhibition at 100 µM: 10⁻⁴M; for inhibition at 100 µM / inhibition at 10 µM: guinea pig cerebrum; for inhibition at 10 µM: 10⁻⁵M; for Ki: Cheng-Prusoff's equation
T1 construct: from tissue; host or cells: guinea pig cerebrum membrane preparation
T1 sequence (P47745 1-326): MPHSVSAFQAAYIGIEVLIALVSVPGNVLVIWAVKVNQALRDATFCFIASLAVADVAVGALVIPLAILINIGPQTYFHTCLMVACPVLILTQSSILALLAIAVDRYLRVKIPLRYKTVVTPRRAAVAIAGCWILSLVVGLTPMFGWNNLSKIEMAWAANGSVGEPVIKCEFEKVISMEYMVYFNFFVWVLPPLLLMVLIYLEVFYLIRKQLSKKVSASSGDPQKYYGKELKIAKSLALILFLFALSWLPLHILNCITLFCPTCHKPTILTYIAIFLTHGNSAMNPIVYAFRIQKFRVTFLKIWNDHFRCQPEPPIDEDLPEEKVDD
Description: Cerebrum of a guinea pig was suspended in ice-cooled 50 mM Tris hydroxymethyl aminomethane hydrochloride (Tris HCl) buffer (pH 7.7) by using Polytron homogenizer (manufactured by […] Co.). […] The suspension was centrifuged under the same conditions, and the final precipitate was suspended once again in 50 mM Tris HCl buffer to give a tissue concentration of 100 mg (wet weight)/ml. The tissue suspension was incubated at 37°C for 30 minutes in the presence of 0.02 unit/mg tissue of adenosine deaminase (manufactured by Sigma Co.). The tissue suspension was then centrifuged (50,000 x g, 10 minutes), and 50 mM Tris HCl buffer was added to the precipitate to adjust the concentration of tissue to 10 mg (wet weight)/ml. […] The mixture solution was allowed to stand at 25°C for 90 minutes and then rapidly filtered by suction through a glass fiber filter (GF/C manufactured by Whatman Co.). […] The radioactivity on the filter was determined with a liquid scintillation counter (manufactured by Packard Instrument Co.). […] The inhibition constant (Ki value) shown in the table was calculated by the Cheng-Prusoff's equation.

dd-strain male mice = test: Acute toxicity test (minimum lethal dose, oral); format: in vivo; details: oral administration, three mice per group, mortality seven days after administration
Description: Test compounds were orally administered to groups of dd-strain male mice weighing 20 ± 1 g, each group consisting of three mice. Seven days after the administration, minimum lethal dose (MLD) of each compound was determined by observing the mortality.

A₂ receptor = molecular target: T2, A₂ receptor (Rattus norvegicus, UniProt P30543); test: Adenosine A₂ receptor binding test (³H-NECA binding); details: for inhibition at 0.1 µM / inhibition at 1 µM / inhibition at 10 µM / inhibition at 100 µM: read-out: Inhibition (%) A₂ Receptor; for Ratio (A₁/A₂): ratio of Ki values A₁/A₂
T2 construct: from tissue; host or cells: rat corpus striatum membrane preparation
T2 sequence (P30543 whole entry): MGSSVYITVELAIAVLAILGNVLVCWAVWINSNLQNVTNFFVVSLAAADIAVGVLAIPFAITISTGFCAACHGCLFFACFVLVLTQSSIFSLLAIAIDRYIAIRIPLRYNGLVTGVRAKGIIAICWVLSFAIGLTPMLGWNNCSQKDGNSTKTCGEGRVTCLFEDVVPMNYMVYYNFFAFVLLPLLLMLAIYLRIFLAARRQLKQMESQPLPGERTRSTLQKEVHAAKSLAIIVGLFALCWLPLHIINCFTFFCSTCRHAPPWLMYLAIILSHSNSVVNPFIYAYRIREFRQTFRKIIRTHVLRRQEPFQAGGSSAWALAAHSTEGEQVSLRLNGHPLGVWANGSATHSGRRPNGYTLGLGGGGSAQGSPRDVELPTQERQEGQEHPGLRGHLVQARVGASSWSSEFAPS

[1] = system: Haloperidol-Induced Catalepsy; test: Effect on haloperidol-induced catalepsy; format: in vivo, mice; details: for ED50: Mus musculus, 1 h, ten mice at each dose, effective = catalepsy score 3 or less, Probit analysis, oral, read-out: ED₅₀; for Number of the Animals Showing Remission: of five mice, catalepsy score not more than 4 points; for Number of the Animals Showing Remission / Remission Rate (%) / Total Score: 10 mg/kg orally; for Remission Rate (%): rate of decrease in total score based on control group; for Total Score: total catalepsy score of five mice (25 points at the full), haloperidol 1.0 mg/kg i.p.
In short: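 Mice got haloperidol 1.0 mg/kg i.p. in 0.3% CMC, then test compounds orally 1 hr later in 0.3% CMC or Tween 80/water. Catalepsy was scored on a 4.5 cm-high bar 1 hr after dosing; remission meant score ≤4 points. ED₅₀ came from Probit analysis.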

## CCn1c(=O)c2[nH]c(/C=C/c3ccc(OC)c(OC)c3)nc2n(CC)c1=O [Compound 1, (E)-8-(3,4-Dimethoxystyryl)-1,3-diethylxanthine]
A₁ receptor
  inhibition at 100 µM: 86%
  inhibition at 10 µM: 84%
dd-strain male mice
  MLD: > 300 mg/kg
A₂ receptor
  inhibition at 0.1 µM: 53%
  inhibition at 1 µM: 86%
  inhibition at 10 µM: 98%
  inhibition at 100 µM: 100%
A₂ receptor; ³H-NECA binding
  Ki: 23 nM

## CCn1c(=O)c2c(nc(/C=C/c3cccc(OC)c3OC)n2C)n(CC)c1=O [Compound 4, (E)-8-(2,3-Dimethoxystyryl)-1,3-diethyl-7-methylxanthine]
A₁ receptor
  inhibition at 100 µM: 70%
  inhibition at 10 µM: 55%
dd-strain male mice
  MLD: > 300 mg/kg
A₂ receptor
  inhibition at 0.1 µM: 57%
  inhibition at 1 µM: 84%
  inhibition at 10 µM: 88%
  inhibition at 100 µM: 90%
A₂ receptor; ³H-NECA binding
  Ki: 33 nM

## CCn1c(=O)c2[nH]c(/C=C/c3ccc(OC)c(OC)c3OC)nc2n(CC)c1=O [Compound 7, (E)-1,3-Diethyl-8-(2,3,4-trimethoxystyryl)xanthine]
A₁ receptor
  inhibition at 100 µM: 49%
  inhibition at 10 µM: 34%
  Ki: > 10000 nM
dd-strain male mice
  MLD: > 300 mg/kg
A₂ receptor
  Ratio (A₁/A₂): > 670
  inhibition at 0.1 µM: 65%
  inhibition at 1 µM: 88%
  inhibition at 10 µM: 75%
  inhibition at 100 µM: 83%
A₂ receptor; ³H-NECA binding
  Ki: 15 nM

## CCn1c(=O)c2[nH]c(/C=C/c3ccc(OC)c(C)c3C)nc2n(CC)c1=O [Compound 9, (E)-1,3-Diethyl-8-(4-methoxy-2,3-dimethylstyryl)xanthine]
A₁ receptor
  inhibition at 100 µM: 26%
  inhibition at 10 µM: 14%
  Ki: > 100000 nM
dd-strain male mice
  MLD: > 300 mg/kg
A₂ receptor
  Ratio (A₁/A₂): > 32,000
  inhibition at 0.1 µM: 79%
  inhibition at 1 µM: 84%
  inhibition at 10 µM: 73%
  inhibition at 100 µM: 86%
A₂ receptor; ³H-NECA binding
  Ki: 3.1 nM

## CCn1c(=O)c2[nH]c(/C=C/c3ccc(OC)c(C)c3OC)nc2n(CC)c1=O [Compound 13, (E)-8-(2,4-Dimethoxy-3-methylstyryl)-1,3-diethylxanthine]
A₁ receptor
  inhibition at 100 µM: 71%
  inhibition at 10 µM: 59%
dd-strain male mice
  MLD: > 300 mg/kg
A₂ receptor
  inhibition at 0.1 µM: 77%
  inhibition at 1 µM: 84%
  inhibition at 10 µM: 88%
  inhibition at 100 µM: 95%
A₂ receptor; ³H-NECA binding
  Ki: 9.5 nM

## CCn1c(=O)c2[nH]c(/C=C/c3ccc4c(c3)OCO4)nc2n(CC)c1=O [Compound 15, (E)-1,3-Diethyl-8-(3,4-methylenedioxystyryl)xanthine]
A₁ receptor
  inhibition at 100 µM: 35%
  inhibition at 10 µM: 25%
  Ki: > 100000 nM
dd-strain male mice
  MLD: > 300 mg/kg
A₂ receptor
  inhibition at 0.1 µM: 53%
  inhibition at 1 µM: 64%
  inhibition at 10 µM: 70%
  inhibition at 100 µM: 70%
A₂ receptor; ³H-NECA binding
  Ki: 15 nM

## CCn1c(=O)c2c(nc(/C=C/c3ccc4c(c3)OCO4)n2C)n(CC)c1=O [Compound 16, (E)-1,3-Diethyl-7-methyl-8-(3,4-methylenedioxystyryl)xanthine]
A₁ receptor
  inhibition at 100 µM: 72%
  inhibition at 10 µM: 53%
dd-strain male mice
  MLD: > 300 mg/kg
[1]
  ED50: 0.76 mg/kg
  Number of the Animals Showing Remission: 5
  Remission Rate (%): 84%
  Total Score: 4
A₂ receptor
  inhibition at 0.1 µM: 80%
  inhibition at 1 µM: 96%
  inhibition at 10 µM: 88%
  inhibition at 100 µM: 93%
A₂ receptor; ³H-NECA binding
  Ki: 6.1 nM

## CCn1c(=O)c2[nH]c(/C=C/c3ccc4c(c3)OCCO4)nc2n(CC)c1=O [Compound 17, (E)-8-[2-(1,4-Benzodioxan-6-yl)vinyl]-1,3-diethylxanthine]
A₁ receptor
  inhibition at 100 µM: 31%
  inhibition at 10 µM: 23%
  Ki: > 100000 nM
dd-strain male mice
  MLD: > 100 mg/kg
A₂ receptor
  Ratio (A₁/A₂): > 16,000
  inhibition at 0.1 µM: 70%
  inhibition at 1 µM: 69%
  inhibition at 10 µM: 80%
  inhibition at 100 µM: 80%
A₂ receptor; ³H-NECA binding
  Ki: 6.3 nM

## CCn1c(=O)c2c(nc(/C=C/c3ccc4c(c3)OCCO4)n2C)n(CC)c1=O [Compound 18, (E)-8-[2-(1,4-Benzodioxan-6-yl)vinyl]-1,3-diethyl-7-methylxanthine]
A₁ receptor
  inhibition at 100 µM: 66%
  inhibition at 10 µM: 56%
dd-strain male mice
  MLD: > 300 mg/kg
[1]
  ED50: 1.9 mg/kg
  Number of the Animals Showing Remission: 5
  Remission Rate (%): 84%
  Total Score: 4
A₂ receptor
  inhibition at 0.1 µM: 84%
  inhibition at 1 µM: 90%
  inhibition at 10 µM: 104%
  inhibition at 100 µM: 98%
A₂ receptor; ³H-NECA binding
  Ki: 1.5 nM

## COc1ccc(/C=C/c2nc3c([nH]2)c(=O)n(C)c(=O)n3C)c(OC)c1OC [Compound 19, (E)-8-(2,3,4-Trimethoxystyryl)theophylline]
A₁ receptor
  inhibition at 100 µM: 31%
  inhibition at 10 µM: 10%
  Ki: > 100000 nM
dd-strain male mice
  MLD: > 300 mg/kg
A₂ receptor
  Ratio (A₁/A₂): > 320
  inhibition at 0.1 µM: 65%
  inhibition at 1 µM: 87%
  inhibition at 10 µM: 92%
  inhibition at 100 µM: 91%
A₂ receptor; ³H-NECA binding
  Ki: 310 nM

## COc1ccc(/C=C/c2nc3c([nH]2)c(=O)n(C)c(=O)n3C)c(C)c1C [Compound 21, (E)-8-(4-Methoxy-2,3-dimethylstyryl)theophylline]
A₁ receptor
  inhibition at 100 µM: 40%
  inhibition at 10 µM: 36%
  Ki: > 100000 nM
dd-strain male mice
  MLD: > 100 mg/kg
[1]
  Number of the Animals Showing Remission: 4
  Remission Rate (%): 24%
  Total Score: 19
A₂ receptor
  inhibition at 0.1 µM: 56%
  inhibition at 1 µM: 68%
  inhibition at 10 µM: 83%
  inhibition at 100 µM: 79%
A₂ receptor; ³H-NECA binding
  Ki: 22 nM

## COc1ccc(/C=C/c2nc3c(c(=O)n(C)c(=O)n3C)n2C)c(C)c1C [Compound 22, (E)-8-(4-Methoxy-2,3-dimethylstyryl)caffeine]
A₁ receptor
  inhibition at 100 µM: 1%
  inhibition at 10 µM: 1%
  Ki: > 100000 nM
dd-strain male mice
  MLD: > 100 mg/kg
[1]
  Number of the Animals Showing Remission: 3
  Remission Rate (%): 20%
  Total Score: 20
A₂ receptor
  Ratio (A₁/A₂): > 33,000
  inhibition at 0.1 µM: 78%
  inhibition at 1 µM: 85%
  inhibition at 10 µM: 78%
  inhibition at 100 µM: 81%
A₂ receptor; ³H-NECA binding
  Ki: 3 nM

## Cn1c(=O)c2[nH]c(/C=C/c3ccc4c(c3)OCO4)nc2n(C)c1=O [Compound 23, (E)-8-(3,4-Methylenedioxystyryl)theophylline]
A₁ receptor
  inhibition at 100 µM: 38%
  inhibition at 10 µM: 32%
  Ki: > 100000 nM
dd-strain male mice
  MLD: > 300 mg/kg
A₂ receptor; 10⁻⁴M, ³H-NECA binding, rat corpus striatum
  inhibition at 100 µM: 81%
A₂ receptor; 10⁻⁵M, ³H-NECA binding, rat corpus striatum
  inhibition at 10 µM: 90%
A₂ receptor; 10⁻⁶M, ³H-NECA binding, rat corpus striatum
  inhibition at 1 µM: 60%
A₂ receptor; 10⁻⁷M, ³H-NECA binding, rat corpus striatum
  inhibition at 0.1 µM: 38%

## Cn1c(=O)c2c(nc(/C=C/c3ccc4c(c3)OCO4)n2C)n(C)c1=O [Compound 24, (E)-8-(3,4-Methylenedioxystyryl)caffeine]
A₁ receptor
  inhibition at 100 µM: -25%
  inhibition at 10 µM: -4%
  Ki: > 100000 nM
dd-strain male mice
  MLD: > 300 mg/kg
A₂ receptor
  Ratio (A₁/A₂): > 3,800
  inhibition at 0.1 µM: 62%
  inhibition at 1 µM: 57%
  inhibition at 10 µM: 75%
  inhibition at 100 µM: 85%
A₂ receptor; ³H-NECA binding
  Ki: 26 nM
